From patent US6949544B2, “Inhibitors of c-Jun N-terminal kinases (JNK) and other protein kinases” (Vertex Pharmaceuticals Incorporated, priority 2001, dated 2005) come the findings set out here.

For the first assay, the target named is T1, Lck kinase purified from bovine thymus (Bos taurus, UniProt Q3ZCM0).
T1 construct: Lck kinase purified from bovine thymus; purchased Upstate Biotechnology 14-106; host or cells: bovine thymus (tissue-purified)
T1 sequence (Q3ZCM0 1-509): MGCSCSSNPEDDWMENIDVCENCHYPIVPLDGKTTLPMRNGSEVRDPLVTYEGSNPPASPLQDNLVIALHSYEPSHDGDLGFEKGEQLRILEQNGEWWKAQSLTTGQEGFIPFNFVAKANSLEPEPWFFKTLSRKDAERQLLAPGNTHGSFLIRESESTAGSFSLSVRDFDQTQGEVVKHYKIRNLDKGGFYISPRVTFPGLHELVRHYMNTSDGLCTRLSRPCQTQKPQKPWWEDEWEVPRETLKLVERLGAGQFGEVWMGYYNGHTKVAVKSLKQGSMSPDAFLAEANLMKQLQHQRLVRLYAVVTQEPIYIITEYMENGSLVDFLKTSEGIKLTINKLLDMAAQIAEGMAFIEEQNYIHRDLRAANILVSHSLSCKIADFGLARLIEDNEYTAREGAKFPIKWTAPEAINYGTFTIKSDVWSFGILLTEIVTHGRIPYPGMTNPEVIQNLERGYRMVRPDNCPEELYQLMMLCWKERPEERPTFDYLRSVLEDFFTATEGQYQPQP
Nature of the assay: Lck inhibition assay (33P incorporation into poly Glu-Tyr). In kind it is biochemical. Conditions: 10 μM ATP; read-out: Activity in the Lck Inhibition Assay (Ki rating A-C). The procedure:
The compounds were assayed as inhibitors of Lck kinase purified from bovine thymus (from Upstate Biotechnology, cat. no. 14-106). Lck kinase activity was monitored by following the incorporation of ^33P from ATP into the tyrosine of a random poly Glu-Tyr polymer substrate of composition, Glu:Tyr=4:1 (Sigma, cat. no. P-0275). The following were the final concentrations of the assay components: 0.05 M HEPES, pH 7.6, 10 mM MgCl2, 2 mM DTT, 0.25 mg/ml BSA, 10 μM ATP (1-2 μCi ^33P-ATP per reaction), 5 mg/ml poly Glu-Tyr, and 1-2 units of lck kinase. In a typical assay, all the reaction components with the exception of ATP were pre-mixed and aliquoted into assay plate wells. […] The assay plate was incubated at 30° C. for 10 min before initiating the reaction with ^33P-ATP. After 20 min of reaction, the reactions were quenched with 150 μl of 10% trichloroacetic acid (TCA) containing 20 mM Na3PO4. The quenched samples were then transferred to a 96-well filter plate (Whatman, UNI-Filter GF/F Glass Fiber Filter, cat no. 7700-3310) installed on a filter plate vacuum manifold. Filter plates were washed four times with 10% TCA containing 20 mM Na3PO4 and then 4 times with methanol. 200 μl of scintillation fluid was then added to each well. The plates were sealed and the amount of radioactivity associated with the filters was quantified on a TopCount scintillation counter.
In general, Ki refers to a dissociation constant, usually derived from enzyme kinetics or from competition with a known ligand. As for `COc1ccc(-c2ccnc(Nc3cccc(F)c3)n2)c(OC)c1OC` [II-5], the inhibition constant (Ki) is above 1000 nM.

On to `COc1cccc(Nc2nccc(-c3ccc(OC)c(OC)c3OC)n2)c1` [II-6], for which the inhibition constant (Ki) is 100 to 1000 nM.

Regarding `COc1ccc(-c2ccnc(Nc3cccc(C)c3)n2)c(OC)c1OC` [II-10], the Ki is above 1000 nM.

As for `COc1ccc(Nc2nccc(-c3ccc(OC)c(OC)c3OC)n2)cc1` [II-12], the inhibition constant (Ki) lay within 100 to 1000 nM.

For `COc1ccc(-c2ccnc(Nc3cccc(Oc4ccccc4)c3)n2)c2c1OCCO2` [II-15], the inhibitory constant (Ki) was 100 to 1000 nM.

On to `COc1ccc(-c2ccnc(Nc3cccc(OCc4ccccc4)c3)n2)c2c1OCCO2` [II-16], for which the Ki fell in the range of 100 to 1000 nM.

Take `COc1c(-c2ccnc(Nc3cccc(Oc4ccccc4)c3)n2)ccc2c1OCCO2` [II-17, [4-(5-Methoxy-2,3-dihydro-benzo[1,4]dioxin-6-yl)-pyrimidin-2-yl]-(3-phenoxyphenyl)-amine]: the inhibition constant Ki is above 1000 nM.

Take `COc1ccc(-c2ccnc(Nc3cccc(Oc4ccccc4)c3)n2)c(OC)c1OCCN1CCOCC1` [II-19]: the Ki is above 1000 nM.

Turning to `COc1ccc(-c2ccnc(Nc3cccc(OCc4ccccc4)c3)n2)c(OC)c1OCCN1CCOCC1` [II-20], the inhibition constant Ki was above 1000 nM.

As to `COc1ccc(-c2ccnc(Nc3cccc(Oc4ccccc4)c3)n2)c(OCCN2CCOCC2)c1OC` [II-21], the Ki was above 1000 nM.

With `COc1ccc(-c2ccnc(Nc3cccc(OCc4ccccc4)c3)n2)c(OCCN2CCOCC2)c1OC` [II-22], the Ki was above 1000 nM.

For `COc1ccc(-c2ccnc(Nc3cccc(Oc4ccncc4)c3)n2)c(OC)c1OC` [II-23], the Ki is below 100 nM.

Regarding `COc1ccc(-c2ccnc(Nc3cccc(Cc4ccccc4)c3)n2)c(OC)c1OC` [II-27], the inhibitory constant (Ki) was in the range of 100 to 1000 nM.

As to `COc1ccc(Oc2ccccc2)cc1Nc1nccc(-c2ccc(OC)c(OC)c2OC)n1` [II-31], the inhibition constant Ki is below 100 nM.

As for `COc1cc(Oc2ccccc2)nc(Nc2nccc(-c3ccc(OC)c(OC)c3OC)n2)n1` [II-34], the Ki was above 1000 nM.

Consider `COc1ccc(-c2ccnc(Nc3cccc(-c4ccccc4F)c3)n2)c(OC)c1OC` [II-35], for which the Ki was below 100 nM.

`COc1ccc(-c2ccnc(Nc3cccc(-c4cccc(F)c4)c3)n2)c(OC)c1OC` [II-36]: the Ki was below 100 nM.

Turning to `COc1ccc(-c2ccnc(Nc3cccc(-c4ccc(F)cc4)c3)n2)c(OC)c1OC` [II-37], the inhibitory constant (Ki) was below 100 nM.

Regarding `COc1ccc(-c2ccnc(Nc3cccc(-c4ccccc4Cl)c3)n2)c(OC)c1OC` [II-38], the inhibitory constant (Ki) was in the range of 100 to 1000 nM.

Turning to `COc1ccc(-c2ccnc(Nc3cccc(-c4cccc(Cl)c4)c3)n2)c(OC)c1OC` [II-39], the Ki was below 100 nM.

As to `COc1ccc(-c2ccnc(Nc3cccc(-c4ccc(Cl)cc4)c3)n2)c(OC)c1OC` [II-40], the Ki was below 100 nM.

Consider `COc1ccccc1-c1cccc(Nc2nccc(-c3ccc(OC)c(OC)c3OC)n2)c1` [II-41], for which the inhibition constant (Ki) was 100 to 1000 nM.

`COc1cccc(-c2cccc(Nc3nccc(-c4ccc(OC)c(OC)c4OC)n3)c2)c1` [II-42]: the Ki fell in the range of 100 to 1000 nM.

Take `COc1ccc(-c2cccc(Nc3nccc(-c4ccc(OC)c(OC)c4OC)n3)c2)cc1` [II-43]: the inhibitory constant (Ki) is below 100 nM.

The same assay, now with this note: at a 5 μM inhibitor concentration.
Consider `COc1ccc(-c2ccnc(Nc3cc(C)cc(C)c3)n2)c(OC)c1OC` [II-14, (3,5-Dimethylphenyl)-[4-(2,3,4-trimethoxyphenyl)-pyrimid-2-yl]-amine], for which the “Activity in the Lck Inhibition Assay (percent inhibition rating D-F)” value is “F (percent inhibition of between 67% and 100%)”.
